Data taken from PubChem BioAssay (NCI).
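Interpolation was linear, between the two tested concentrations surrounding the appropriate level; five concentrations were tested over 48 hours in 96-well plates. At the GI50, growth is halved. TGI denotes the concentration required for complete inhibition of growth.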

Legend:
Test in all cases: NCI anticancer screen, dose series, 48 h
EKVX NSCLC = system: EKVX NSCLC
DLD-1 colon = system: DLD-1 colon
CCRF-CEM leukemia = system: CCRF-CEM leukemia
IGROV1 ovarian = system: IGROV1 ovarian
DMS 273 small cell lung = system: DMS 273 small cell lung
HCT-116 colon = system: HCT-116 colon
OVCAR-8 ovarian = system: OVCAR-8 ovarian
RPMI-8226 leukemia = system: RPMI-8226 leukemia
U251 CNS = system: U251 CNS
UACC-62 melanoma = system: UACC-62 melanoma
UO-31 renal = system: UO-31 renal
SW-620 colon = system: SW-620 colon
A498 renal = system: A498 renal
KM12 colon = system: KM12 colon
NCI-H522 lung = system: NCI-H522 lung
M14 melanoma = system: M14 melanoma
LOX IMVI melanoma = system: LOX IMVI melanoma
SNB-78 CNS = system: SNB-78 CNS
SK-MEL-28 melanoma = system: SK-MEL-28 melanoma
TK-10 renal = system: TK-10 renal
SK-MEL-5 melanoma = system: SK-MEL-5 melanoma
A549 NSCLC = system: A549 NSCLC
KM20L2 colon = system: KM20L2 colon
OVCAR-3 ovarian = system: OVCAR-3 ovarian
MOLT-4 leukemia = system: MOLT-4 leukemia
SF-295 CNS = system: SF-295 CNS
LXFL 529 NSCLC = system: LXFL 529 NSCLC
NCI-H460 lung = system: NCI-H460 lung
SNB-75 CNS = system: SNB-75 CNS
HCT-15 colon = system: HCT-15 colon
HOP-92 NSCLC = system: HOP-92 NSCLC
OVCAR-4 ovarian = system: OVCAR-4 ovarian
SN12C renal = system: SN12C renal
HT29 colon = system: HT29 colon
MALME-3M melanoma = system: MALME-3M melanoma
SF-268 CNS = system: SF-268 CNS
NCI-H23 lung = system: NCI-H23 lung
HOP-62 NSCLC = system: HOP-62 NSCLC
SNB-19 CNS = system: SNB-19 CNS
OVCAR-5 ovarian = system: OVCAR-5 ovarian
HL-60(TB) leukemia = system: HL-60(TB) leukemia
K-562 leukemia = system: K-562 leukemia
786-0 renal = system: 786-0 renal
SF-539 CNS = system: SF-539 CNS
SK-MEL-2 melanoma = system: SK-MEL-2 melanoma
SK-OV-3 ovarian = system: SK-OV-3 ovarian
ACHN renal = system: ACHN renal
COLO 205 colon = system: COLO 205 colon
UACC-257 melanoma = system: UACC-257 melanoma
CAKI-1 renal = system: CAKI-1 renal
BT-549 breast = system: BT-549 breast
MDA-N = system: MDA-N
RXF 393 renal = system: RXF 393 renal
NCI-H226 lung = system: NCI-H226 lung
MCF7 breast = system: MCF7 breast
MDA-MB-435 = system: MDA-MB-435
NCI/ADR-RES ovarian = system: NCI/ADR-RES ovarian
SR leukemia = system: SR leukemia
MDA-MB-231 breast = system: MDA-MB-231 breast
PC-3 prostate = system: PC-3 prostate
T-47D breast = system: T-47D breast
HS 578T breast = system: HS 578T breast
DU-145 prostate = system: DU-145 prostate

SMILES: N.N.N.N.O=S(=O)([O-])[O-].[Co+3].[OH3+].[OH3+]
- TGI (EKVX NSCLC): > 100 µM
- TGI (DLD-1 colon): > 100 µM
- TGI (CCRF-CEM leukemia): > 100 µM
- TGI (IGROV1 ovarian): > 100 µM
- TGI (DMS 273 small cell lung): > 100 µM
- TGI (HCT-116 colon): > 100 µM
- TGI (OVCAR-8 ovarian): > 100 µM
- TGI (RPMI-8226 leukemia): > 100 µM
- TGI (U251 CNS): > 100 µM
- TGI (UACC-62 melanoma): > 100 µM
- TGI (UO-31 renal): > 100 µM
- TGI (SW-620 colon): > 100 µM
- TGI (A498 renal): > 100 µM
- TGI (KM12 colon): > 100 µM
- TGI (NCI-H522 lung): > 100 µM
- TGI (M14 melanoma): > 100 µM
- TGI (LOX IMVI melanoma): > 100 µM
- TGI (SNB-78 CNS): > 100 µM
- TGI (SK-MEL-28 melanoma): > 100 µM
- TGI (TK-10 renal): > 100 µM
- TGI (SK-MEL-5 melanoma): > 100 µM
- TGI (A549 NSCLC): > 100 µM
- TGI (KM20L2 colon): > 100 µM
- TGI (OVCAR-3 ovarian): > 100 µM
- TGI (MOLT-4 leukemia): > 100 µM
- TGI (SF-295 CNS): > 100 µM
- GI50 (LXFL 529 NSCLC): > 100 µM
- TGI (LXFL 529 NSCLC): > 100 µM
- TGI (NCI-H460 lung): > 100 µM
- TGI (SNB-75 CNS): > 100 µM
- TGI (HCT-15 colon): > 100 µM
- TGI (HOP-92 NSCLC): > 100 µM
- TGI (OVCAR-4 ovarian): > 100 µM
- TGI (SN12C renal): > 100 µM
- TGI (HT29 colon): > 100 µM
- TGI (MALME-3M melanoma): > 100 µM
- TGI (SF-268 CNS): > 100 µM
- TGI (NCI-H23 lung): > 100 µM
- TGI (HOP-62 NSCLC): > 100 µM
- TGI (SNB-19 CNS): > 100 µM
- TGI (OVCAR-5 ovarian): > 100 µM
- TGI (HL-60(TB) leukemia): > 100 µM
- TGI (K-562 leukemia): > 100 µM
- TGI (786-0 renal): > 100 µM
- TGI (SF-539 CNS): > 100 µM
- TGI (SK-MEL-2 melanoma): > 100 µM
- TGI (SK-OV-3 ovarian): > 100 µM
- TGI (ACHN renal): > 100 µM
- TGI (COLO 205 colon): > 100 µM
- TGI (UACC-257 melanoma): > 100 µM

SMILES: O=c1[nH][nH]c(=S)c(=O)[nH]1
- TGI (EKVX NSCLC): > 100 µM
- TGI (CAKI-1 renal): > 100 µM
- TGI (BT-549 breast): > 100 µM
- TGI (MDA-N): > 100 µM
- TGI (CCRF-CEM leukemia): > 100 µM
- TGI (RXF 393 renal): > 100 µM
- TGI (IGROV1 ovarian): > 100 µM
- TGI (NCI-H226 lung): > 100 µM
- TGI (MCF7 breast): > 100 µM
- TGI (HCT-116 colon): > 100 µM
- TGI (MDA-MB-435): > 100 µM
- TGI (OVCAR-8 ovarian): > 100 µM
- TGI (NCI/ADR-RES ovarian): > 100 µM
- TGI (SR leukemia): > 100 µM
- TGI (RPMI-8226 leukemia): > 100 µM
- TGI (U251 CNS): > 100 µM
- TGI (MDA-MB-231 breast): > 100 µM
- TGI (UACC-62 melanoma): > 100 µM
- TGI (UO-31 renal): > 100 µM
- TGI (SW-620 colon): > 100 µM
- TGI (A498 renal): > 100 µM
- TGI (KM12 colon): > 100 µM
- TGI (NCI-H522 lung): > 100 µM
- TGI (M14 melanoma): > 100 µM
- TGI (LOX IMVI melanoma): > 100 µM
- TGI (SK-MEL-28 melanoma): > 100 µM
- TGI (TK-10 renal): > 100 µM
- TGI (SK-MEL-5 melanoma): > 100 µM
- TGI (A549 NSCLC): > 100 µM
- TGI (OVCAR-3 ovarian): > 100 µM
- TGI (PC-3 prostate): > 100 µM
- TGI (MOLT-4 leukemia): > 100 µM
- TGI (SF-295 CNS): > 100 µM
- TGI (NCI-H460 lung): > 100 µM
- TGI (SNB-75 CNS): > 100 µM
- TGI (HCT-15 colon): > 100 µM
- TGI (T-47D breast): > 100 µM
- TGI (HOP-92 NSCLC): > 100 µM
- TGI (OVCAR-4 ovarian): > 100 µM
- TGI (SN12C renal): > 100 µM
- TGI (HT29 colon): > 100 µM
- TGI (HS 578T breast): > 100 µM
- TGI (MALME-3M melanoma): > 100 µM
- TGI (SF-268 CNS): > 100 µM
- TGI (NCI-H23 lung): > 100 µM
- TGI (HOP-62 NSCLC): > 100 µM
- TGI (SNB-19 CNS): > 100 µM
- TGI (OVCAR-5 ovarian): > 100 µM
- TGI (HL-60(TB) leukemia): > 100 µM
- TGI (K-562 leukemia): > 100 µM
- TGI (786-0 renal): > 100 µM
- TGI (DU-145 prostate): > 100 µM
- TGI (SF-539 CNS): > 100 µM
- TGI (SK-MEL-2 melanoma): > 100 µM
- TGI (SK-OV-3 ovarian): > 100 µM
- TGI (ACHN renal): > 100 µM
- TGI (COLO 205 colon): > 100 µM
- TGI (UACC-257 melanoma): > 100 µM
